# Data: patent publication US20230152304A1 (SHENZHEN MINDRAY BIO-MEDICAL ELECTRONICS CO., LTD., priority 2020, published 2023)
# Residues, ends and D or L forms follow the SMILES beside them.
# Assays:
# [1] = system: aggregated platelets induced by ADP; test: Platelet disaggregation rate of blood samples with ADP-induced platelet aggregation (hematology analyzer, PLT_O)
# Protocol: The compounds in Table 1 above were respectively added to a diluent used for a hematology analyzer to prepare blood sample diluents. […] Each of the compounds in Table 1 (at a final concentration 0.01 mol/L) was added to the diluent separately, pH was adjusted to 14, and the osmotic pressure was adjusted to 200 mOsm/L to obtain the treatment solution.
# The venous blood of a healthy subject was collected into blood anticoagulant tubes for later use. Two aliquot blood samples (1 ml/sample) were taken. The above-mentioned diluent was added to one of the samples, the resulting solution was mixed evenly, and then the platelet count was detected in a hematology analyzer (Mindray BC-6000Plus) and recorded as: PLT_O (unaggregated). The platelet aggregation inducer ADP (at a final concentration of 0.01 mmol/L) was added to the other sample, and the resulting solution was mixed evenly. Platelets were aggregated 5 min later, at this time the above-mentioned diluent was added, and then the blood containing the aggregated platelets was detected by the hematology analyzer to obtain the platelet count, which was recorded as: PLT_O (aggregated). Another 1 ml of blood sample was taken, the platelet aggregation inducer ADP (at a final concentration of 0.01 mmol/L) was added, and the resulting solution was mixed evenly. The above-mentioned treatment solution was added 5 min later, the resulting solution was mixed evenly, and then the platelet count of the treated blood was detected by the hematology analyzer and was recorded as: PLT_O (disaggregated).
# [2] = pKa of the amino group of the compound
# Description: For the compound having a plurality of amino groups/imino groups, the pKa of amino group described herein refers to the first dissociation constant, that is, pKa of amino group or imino group which firstly dissociates hydrogen ion.
# [3] = system: platelet aggregation induced by COL; test: Disaggregation over time of COL-induced platelet aggregation; format: cell-based; conditions: FIG. 10; 10 mmol/L, pH 9.5, COL 0.05-20 mM, except lowest concentration
# Protocol: (§1) Specifically, according to the method similar to Example 1, the amino group-containing compound (1-acetylguanidine) was added to a diluent to treat blood samples in which different concentrations of aggregation inducer were added. Then the samples were tested, in which the test was performed every 5 min after the treatment solution was added to each sample so as to obtain the change of disaggregation rates over time.
# FIG. 9 and FIG. 10 show curve graphs of platelet aggregation tests induced by COL at different concentrations. The substantially same method as the above-mentioned was used, except that ADP was replaced by COL. The concentrations of COL were 0.05 mM, 0.1 mM, 0.5 mM, 1 mM, 5 mM, 10 mM and 20 mM, respectively.
# [4] = system: platelet aggregation induced by RIS; test: Disaggregation over time of RIS-induced platelet aggregation; format: cell-based; conditions: FIG. 12; 10 mmol/L, pH 9.5, RIS 0.15-3 mM
# Protocol: as §1
# FIG. 11 and FIG. 12 show curve graphs of platelet aggregation tests induced by RIS at different concentrations. The substantially same method as the above-mentioned was used, except that ADP was replaced by RIS. The concentrations of RIS were 0.15 mM, 0.375 mM, 0.75 mM, 1.5 mM and 3 mM, respectively. […] In addition, the disaggregation effect of 1-acetylguanidine can reach the highest immediately for RIS at various concentrations, and remained relatively stable within 10 min. The rapid decrease in the disaggregation rate after 15 min was also because the blood in the samples was coagulated.
# [5] = system: platelet aggregation induced by THR; test: Disaggregation over time of THR-induced platelet aggregation; format: cell-based; conditions: FIG. 8; 10 mmol/L, pH 9.5, THR 0.1-0.35 U
# Protocol: as §1
# Similarly, FIG. 7 and FIG. 8 show curve graphs of platelet aggregation tests induced by THR at different concentrations. The substantially same method as the above-mentioned was used, except that ADP was replaced by THR. The concentrations of THR were 0.1 U, 0.15 U, 0.2 U, 0.23 U, 0.25 U, 0.28 U, 0.30 U and 0.35 U, respectively. […] This was because after a certain concentration of THR was added, soluble fibrinogen converted to […], causing blood coagulation, and platelets were also wrapped by […], resulting in a sharp increase in aggregation rate. […] However, a good disaggregation rate can be achieved when samples were tested immediately after treatment.
# platelets = test: Induction of platelet aggregation in venous blood by inducers (aggregation rate, impedance channel PLT_I); format: cell-based; conditions: for time until platelet aggregation reached the maximum degree: after inducer was added, different concentrations
# Description: Platelet aggregation can be induced by a variety of substances, thereby leading to blood coagulation. In order to investigate the disaggregation effects of amino group-containing compounds on platelet aggregation induced by different factors, in this example, substances, which can induce platelet aggregation, in the blood coagulation test scheme were selected according to the existing platelet aggregation pathways, and a variety of platelet aggregation models were established. The substances included adenosine diphosphate (ADP), thrombin (THR), collagen (COL) and ristocetin (RIS). […] In addition, the amino group-containing compounds can also effectively disaggregate the platelets having different inducements and aggregation degrees in certain concentration ranges and time ranges.
# Specifically, several samples of 1 ml of venous blood were taken, and ADP was added to each sample to make the final concentrations be 0.01 mM, 0.25 mM, 0.5 mM and 1 mM respectively. The blood containing aggregated platelets was tested by using a hematology analyzer. The features including numbers, sizes, etc., of various cell particles in the blood were obtained by means of an impedance channel and an optical channel in the hematology analyzer. Normal blood was collected into blood anticoagulant tubes, and then the number of platelet particles detected by the impedance channel in the hematology analyzer was obtained and recorded as (PLT_I). When platelet aggregation occurred, the volume of a particle of the aggregated platelets was much larger than the volume of a single platelet and therefore the accurate count cannot be achieved by means of a corresponding platelet recognition mechanism. As a result, the platelet count was lowered and recorded as PLT_I (aggregated). No amino group-containing compound was added to the diluent of the impedance channel, thus the impedance channel reflected the degree of platelet aggregation in this aggregation model. The platelet count before aggregation was recorded as PLT_I (unaggregated), the platelet count after aggregation was recorded as PLT_I (aggregated), and the aggregation rate=PLT_I (aggregated)/PLT_I (unaggregated). The number of platelet particles tested by means of the optical channel in the hematology analyzer was obtained and recorded as (PLT_O). […] The platelet count before aggregation was recorded as PLT_O (unaggregated), and the platelet count after aggregation was recorded as PLT_O (undisaggregated). […] On the basis of the above principle, the model was established, and the disaggregation effect of the amino group-containing compound was quantitatively determined.
# [6] = Table 3, method of Example 1 (0.01 mol/L, pH 14, ADP 0.01 mmol/L)
# [7] = Table 4, pH 10.8, method of Example 1
# [8] = Table 5, pH 9.5, method of Example 1
# [9] = Table 2, compound 0.01 mol/L, pH 14, ADP 0.01 mmol/L
# [10] = Table 4, pH 9.14, method of Example 1
# [11] = Table 4, pH 5.75, method of Example 1
molecule,measurement,setting,value
"NCC(O)CN [1,3-diamino-2-propanol]",Platelet disaggregation rate,[1]; [6],93.78%
same,pKa,[2]; Table 3,9.68
CC(=O)NC(=N)N [1-acetylguanidine],disaggregation rate,"[1]; FIG. 3, ambient pH varied 7.0-10, after pH increase",97.32%
same,disaggregation rate,"[1]; FIG. 3, ambient pH varied 7.0-10, low end of pH range",35.23%
same,disaggregation effect on platelet aggregation with various aggregation degrees,"[1]; FIG. 6, 10 mmol/L, pH 9.5, ADP 0.01-1 mM",remarkable disaggregation effects
same,disaggregation effect,"[1]; FIG. 14, 50 mmol/L (total for combination, equal parts), ADP 0.1 mmol/L",62.14%
same,Platelet disaggregation rate,[1]; [7],97.35%
same,disaggregation rate,[1]; [8],97.11%
same,time after which the disaggregation effect decreased significantly,[3],4 to 8 min
same,time after which the disaggregation rate decreased rapidly,[4],15 min
same,pKa,"[2]; pKa, Example 4",8.33
same,pKa,"[2]; pKa, Table 4",8.33
same,pKa,"[2]; pKa, Table 5",8.3
same,time after which the disaggregation effect decreased significantly,[5],1 min
"Nc1ccc(N)c(S(=O)(=O)O)c1 [2,5-diaminobenzene-sulfonic acid]",Platelet disaggregation rate,[1]; [6],62.44%
same,pKa,"[2]; pKa, Table 3",5.17
"NCC(CN)CN [2-(aminomethyl)-propane-1,3-diamine]",Platelet disaggregation rate,[1]; [6],96.43%
same,disaggregation rate,[1]; [8],97.46%
same,pKa,"[2]; pKa, Table 3",9.59
same,pKa,"[2]; pKa, Table 5",9.6
CNC(CC(N)=O)C(N)=O (stereo not drawn) [2-(methylamino) succinamide],Platelet disaggregation rate,[1]; [6],74.43%
same,pKa,"[2]; pKa, Table 3",7.02
CC(N)C(N)=O (stereo not drawn) [2-aminopropanamide],Platelet disaggregation rate,"[1]; Table 4, pH 8.18, method of Example 1",62.65%
same,pKa,"[2]; pKa, Table 4",8.18
NCCCCO [4-amino-1-butanol],Platelet disaggregation rate,"[1]; Table 4, pH 9.96, method of Example 1",74.45%
same,pKa,"[2]; pKa, Table 4",10.3
Nc1ccc(O)cc1 [4-aminophenol],Platelet disaggregation rate,[1]; [9],67.73%
same,Platelet disaggregation rate,[1]; [10],67.37%
same,pKa,[2],5.5
NCc1ccc(O)cc1 [4-hydroxybenzylamine],Platelet disaggregation rate,[1]; [10],51.43%
same,pKa,"[2]; pKa, Table 4",9.14
"Nc1ncnc2c1ncn2[C@@H]1O[C@H](COP(=O)(O)OP(=O)(O)O)[C@@H](O)[C@H]1O [ADP, adenosine diphosphate]",platelet aggregation achieved at most,"platelets; FIG. 5, ADP 0.01 mM",about 35%
same,time until platelet aggregation reached the maximum degree,platelets,≤ 5 min
NCS(=O)(=O)O [aminomethanesulfonic acid],Platelet disaggregation rate,[1]; [11],52.44%
same,pKa,"[2]; pKa, Table 4",5.75
N=C(N)NCCC[C@H](N)C(=O)O [arginine],disaggregation rate,[1]; [8],62.64%
same,pKa,"[2]; pKa, Table 5",9
N=C(N)NC(=N)N [biguanide],Platelet disaggregation rate,[1]; [6],97.54%
same,pKa,"[2]; pKa, Table 3",13.2
N[C@@H](CCC(=O)O)C(=O)O [glutamic acid],disaggregation rate,[1]; [8],63.24%
same,pKa,[2],9.6
same,pKa,[2]; Table 5,9.6
NCC(=O)NCC(=O)O [gly-gly] (H-Gly-Gly-OH),disaggregation rate,[1]; [8],57.29%
same,pKa,[2],9.6
N=C(N)N [guanidine],Platelet disaggregation rate,[1]; [9],84.35%
same,Platelet disaggregation rate,[1]; [6],84.35%
same,pKa,[2],13.17
NCCCCC(N)C(=O)NC(CCCCN)C(=O)O (stereo not drawn) [lys-lys],Platelet disaggregation rate,[1]; [6],85.75%
same,pKa,"[2]; pKa, Table 3",11
NCCCCC(N)C(=O)O (stereo not drawn) [lysine],Platelet disaggregation rate,[1]; [6],70.49%
same,pKa,"[2]; pKa, Example 4",10.7
same,pKa,"[2]; pKa, Table 3",10.8
Nc1cccc(N)c1 [m-phenylenediamine],Platelet disaggregation rate,[1]; [6],66.83%
same,pKa,[2]; pKa,4.67
OCN(CO)C(CO)(CO)CO [reference compound],disaggregation rate,[1]; [8],24.0%
same,pKa,[2],6.5
NS(=O)(=O)O [sulfamic acid],Platelet disaggregation rate,[1]; [11],64.54%
same,pKa,[2],1.19
Nc1ccc(S(=O)(=O)O)cc1 [sulfanilic acid],Platelet disaggregation rate,[1]; [9],55.15%
same,Platelet disaggregation rate,[1]; [6],55.15%
same,pKa,"[2]; pKa, Example 4",10.1
same,pKa,"[2]; pKa, Table 3",3.32
NCCS(=O)(=O)O [taurine],Platelet disaggregation rate,[1]; [11],46.25%
same,pKa,"[2]; pKa, Table 4",9.12
NCCc1ccc(O)cc1 [tyramine],Platelet disaggregation rate,[1]; [10],48.44%
same,pKa,"[2]; pKa, Table 4",10.6
N=C(N)NCC(=O)O [{[amino(imino)methyl]amino}-acetic acid],Platelet disaggregation rate,[1]; [7],94.02%
same,pKa,"[2]; pKa, Table 4",10.8
aminoguanidine,Platelet disaggregation rate,[1]; [6],92.35%
same,pKa,[2]; Table 3,11.04
collagen,degree of platelet aggregation,"platelets; FIG. 9, COL at various concentrations (0.05-20 mM)",~100%
ethylamine,Platelet disaggregation rate,"[1]; Table 4, pH 10.64, method of Example 1",83.32%
same,pKa,[2]; Table 4,10.67
methyl guanidine,Platelet disaggregation rate,[1]; [7],86.36%
same,pKa,[2],13.2
ristocetin,time until platelet aggregation reached the maximum degree,platelets,15 to 20 min
tris(hydroxymethyl)aminomethane,disaggregation rate,[1]; [8],97.32%
same,pKa,[2]; Table 5,8.1
